Source: patent US4623648A, “1-azaxanthone for use as therapeutic agent as an antipyretic, analgesic, anti-inflammatory and bronchodilator” (priority 1981, dated 1986)
Values after ≈ are worked out from the molar mass of the structure shown. Where two headings read alike, the source gives them in different places.

Experiments:
[1] = Water solubility (general statement); format: physicochemical
[2] = tested on: turpentine-induced pleurisy; assay: Turpentine-induced pleurisy; conditions: in vivo
granuloma tissue = assay: Cotton-pellet granuloma; format: in vivo; conditions: 200 mg/kg/day per os, 5 consecutive days
Procedure: (§1) Sprague-Dawley rats, Swiss mice, California rabbits and mongrel guinea pigs and cats were used. 1-azaxanthone was administered as a suspension in 0.5 % w/v of carboxymethyl-cellulose in distilled water for oral and i.p. administration. When administered i.v. or to the nutrient liquid of the isolated tissues, a solution of the compound in isopropylidenglycerol (15 mg/ml) was used.
Cotton-pellet granuloma (according to R. Meier et al., Experientia (Basel), 1950, 6, 469).

Evans blue permeability = Evans blue permeability assay; conditions: in vivo
guinea pig = assay: Inhibition of the bronchoconstrictor response to bradykinin in guinea pig; format: in vivo; conditions: 8 mg/kg i.v.; 10 min after 6 μg and 8 min before 12 μg of bradykinin
Procedure: as §1
Inhibition of the bronchoconstrictor response to bradykinin in guinea pig (according to H. Konzett and R. Rossler, ibid.). 1-azaxanthone (8 mg/kg i.v.) produced a 100% inhibition of the response induced by bradykinin when the test compound was administered 10 min after 6 μg and 8 min before 12 μg of bradykinin.

cardiocirculatory system = assay: Effect on the cardiocirculatory system; format: in vivo; conditions: rats, cats and dogs
cats = assay: Physiologic peristaltic movements in cats; format: in vivo; conditions: 4 mg/kg endovenously
Procedure: as §1

[3] = tested on: Mycob. Butyricum induced arthritis; assay: Mycob. Butyricum induced arthritis; format: in vivo; conditions: only in preventative treatment
Source text: Butyricum induced arthritis (only in preventative treatment).

mice [4] = assay: Hot plate test in mice; format: in vivo; conditions: Mus musculus; oral, 1 hour before; plate 57°±0.5° C.; 95% confidence limits 11-39
Procedure: as §1
Hot plate test in mice. An analgesimeter LETICA model 7000 was used, the temperature of the plate being maintained at 57°±0.5° C. The test compound was administered by oral route 1 hour before placing the animals on the plate.

rabbits = assay: Hyperthermia induced in rabbits by lipopolysaccharide of Escherichia coli, preventive; format: in vivo; conditions: 0.1 μg/kg lipopolysaccharide
Procedure: Sprague-Dawley rats, Swiss mice, California rabbits and mongrel guinea pigs and cats were used. 1-azaxanthone was administered as a suspension in 0.5 % w/v of carboxymethyl-cellulose in distilled water for oral and i.p. administration.

rats [5] = assay: Yeast-induced hyperthermia in rats; format: in vivo
Procedure: as §1
Yeast-induced hyperthermia in rats (according to U. M. Teotino et al., J. Med. Chem. 1963, 6, 248). The test compound was administered by oral route 1 hour before the s.c. injection of the pyrogenic agent.

granuloma pouch = assay: Granuloma pouch; conditions: in vivo
[6] = tested on: guinea pig tracheal chain; assay: Isolated guinea pig tracheal chain; conditions: Cavia porcellus, bath nutrient liquid
Procedure: as §1
Isolated guinea pig tracheal chain (according to J. C. Castillo and E. K. DeBeer, J. Pharmacol. Exptl. Ther. 1947, 90, 104). 1-azaxanthone produced maximum relaxation of the tracheal muscle at a concentration of 20 μg/ml in the bath nutrient liquid. The minimun effective dose was about 5 μg/ml.

[7] = tested on: bilaterally suprarenalectomized rats; assay: Carrageenan paw oedema in bilaterally suprarenalectomized rats; format: in vivo; conditions: 200 mg/kg per os
Procedure: as §1
(§2) Carrageenan rat paw oedema (according to C. A. Winter et al., Proc. Soc. Exptl. Biol. N.Y. 1962, 111, 544).

Acute toxicity in mice = conditions: mouse, in vivo, ip, female mice
Procedure: (§3) The acute toxicity of 1-azaxanthone was evaluated in rats and mice. LD50 values ranged between 400-600 mg/kg (i.p. route) and between 600-2000 mg/kg (oral route) depending on species and sex.

[8] = tested on: schistosomiasis infections; conditions: F. G. Mann, J. A. Reid, J. Chem. Soc. 1952; cited from earlier work
central nervous system = assay: Effect on the central nervous system; format: in vivo, mice and rats
[9] = Acute toxicity in rats and mice (overall ranges); conditions: in vivo, depending on species and sex
Procedure: as §3

Acute toxicity in rats = conditions: rat, in vivo
Procedure: as §3

mice [10] = assay: Acetic acid induced writhing in mice; format: in vivo; conditions: Mus musculus; oral; 95% confidence limits 2.1-3.4
Procedure: as §1
Acetic acid induced writhing in mice (according to R. Koster et al., Fedn. Proc. 1959, 18, 412).

rat inflamed paw = assay: Hyperalgesia in rat inflamed paw (Randall and Selitto); format: in vivo; conditions: po, per os, read-out: AID2 (dose that increases twice the analgesic threshold of the control animals)
Procedure: as §1
Hyperalgesia in rat inflamed paw (according to L. O. Randall and J. J. Selitto, Arch. Int. Pharmacodyn. 1957, 111, 409).

Guinea pig ileum = Guinea pig ileum in vitro spasmolytic assay; conditions: Cavia porcellus, read-out: ED50 (dose which inhibits the response of the ileum to the agonist by 50%)
Procedure: as §1
Guinea pig ileum (according to R. Magnus, Pflugers Arch. Ges. Physiol. 1904, 102, 123). In this "in vitro" assay 1-azaxanthone had the following ED50 with different agonists (dose which inhibits the response of the ileum to the agonists by 50%): […]

rats [11] = assay: D'Amour and Smith test in rats; format: in vivo; conditions: oral dose of ca. 100 mg/kg, 1 hour before testing
Procedure: as §1
"D'Amour and Smith" test in rats (see J. Pharmacol. Exptl. Therap., 1941, 72, 74). An analgesimeter LETICA model 7100 was used. An oral dose of ca. 100 mg/kg of 1-azaxanthone, administered 1 hour before testing produced analgesia in 50% of the animals.

rat paw oedema = assay: Carrageenan rat paw oedema; format: in vivo; conditions: po, per os, 95% confidence limits 6.0-37.3
Procedure: as §1, §2

**Q.** Which water solubility [1] does the source give for `O=c1c2ccccc2oc2ncccc12` [1-azaxanthone] here?
**A.** The water solubility was “low water solubility”.

**Q.** And the “activity in turpentine-induced pleurisy” value [2]?
**A.** The value was “showed activity”.

**Q.** And the “inhibition of weight of dried granuloma tissue” value (granuloma tissue)?
**A.** The value was 17.4%.

**Q.** And the “inhibition of weight of wet granuloma tissue” value (granuloma tissue)?
**A.** The value was 13.5%.

**Q.** What about the “activity in Evans blue permeability assay” value (Evans blue permeability) of the same molecule?
**A.** Its value is “showed activity”.

**Q.** What about the “inhibition of response induced by bradykinin” value (guinea pig) of the same molecule?
**A.** The value was 100%.

**Q.** And the “effect on the cardiocirculatory system” value (cardiocirculatory system)?
**A.** Its value is “no effect on the cardiocirculatory system”.

**Q.** And the “inhibition of physiologic peristaltic movements” value (cats)?
**A.** The value was “inhibited physiologic peristaltic movements”.

**Q.** What about the “activity in Mycob. Butyricum induced arthritis” value [3] of the same molecule?
**A.** The value was “showed activity”.

**Q.** What about the ED50 (mice [4]) of the same molecule?
**A.** Its ED50 is 21 mg/kg.

**Q.** And the “reduction of the increase in rectal temperature” value (rabbits; 100 mg/kg i.p., control increase 1.85° C.)?
**A.** The value was 0.7 °C.

**Q.** What about the “protection against increase in rectal temperature” value (rabbits; 200 mg/kg i.p.) of the same molecule?
**A.** The value was “completely protected the animals”.

**Q.** And the antipyretic effect (rats [5]; 0.375 mg/kg, 2nd and 3rd hours)?
**A.** Its antipyretic effect is “statistically significant antipyretic effect”.

**Q.** And the prevention of hyperthermia (rats [5]; 6.2 mg/kg oral, 4 hours after yeast injection (control increase 1.8° C.))?
**A.** The prevention of hyperthermia was “completely prevented the hyperthermia”.

**Q.** And the “decrease of hyperthermia with respect to control increase” value (rats [5]; 6.2 mg/kg oral, 6 hours after yeast injection (control total increase 1.4° C.))?
**A.** The value was 0.8 °C.

**Q.** And the “activity in granuloma pouch” value (granuloma pouch)?
**A.** The value was “showed activity”.

**Q.** What about the EC (maximum relaxation) ([6]; read-out: concentration producing maximum relaxation of the tracheal muscle) of the same molecule?
**A.** Its EC (maximum relaxation) is 20 µg/mL.

**Q.** And the minimal effective concentration ([6]; read-out: minimum effective dose (tracheal relaxation))?
**A.** The minimal effective concentration was about 5 µg/mL.

**Q.** What about the inhibition of oedema [7] of the same molecule?
**A.** The inhibition of oedema was 39%.

**Q.** What about the LD50 (Acute toxicity in mice) of the same molecule?
**A.** Its LD50 is 600 mg/kg.

**Q.** What about the “effect on schistosomiasis infections” value [8] of the same molecule?
**A.** Its value is “did not show any "significant effect on schistosomiasis infections"”.

**Q.** What about the “activity on the central nervous system” value (central nervous system; in vivo) of the same molecule?
**A.** Its value is “Clear activity on the central nervous system was not observed”.

**Q.** What about the signs of depression (central nervous system; mice and rats at high doses) of the same molecule?
**A.** The signs of depression was “some signs of depression”.

**Q.** What about the LD50 ([9]; ip) of the same molecule?
**A.** The LD50 was 400 to 600 mg/kg.

**Q.** What about the LD50 ([9]; oral) of the same molecule?
**A.** Its LD50 is 600 to 2000 mg/kg.

**Q.** What about the LD50 (Acute toxicity in rats; ip, female rats) of the same molecule?
**A.** The LD50 was 420 mg/kg.

**Q.** And the LD50 (Acute toxicity in rats; po, orally, male rats)?
**A.** Its LD50 is about 2000 mg/kg.

**Q.** What about the ED50 (mice [10]) of the same molecule?
**A.** Its ED50 is 2.8 mg/kg.

**Q.** What about the ED (2-fold analgesic threshold) (rat inflamed paw) of the same molecule?
**A.** The ED (2-fold analgesic threshold) was 18.4 mg/kg.

**Q.** What about the IC50 (Guinea pig ileum; agonist: Acetylcholine) of the same molecule?
**A.** Its IC50 is 14.3 µg/mL (≈ 72.3 µM).

**Q.** And the IC50 (Guinea pig ileum; agonist: BaCl2)?
**A.** Its IC50 is 19.7 µg/mL (≈ 100 µM).

**Q.** And the IC50 (Guinea pig ileum; agonist: Histamine)?
**A.** Its IC50 is 22.9 µg/mL (≈ 116 µM).

**Q.** And the IC50 (Guinea pig ileum; agonist: Nicotine)?
**A.** Its IC50 is 27.8 µg/mL (≈ 141 µM).

**Q.** And the animals with analgesia (rats [11])?
**A.** Its animals with analgesia is 50%.

**Q.** And the ED50 (rat paw oedema)?
**A.** The ED50 was 21.7 mg/kg.
